These results are taken from the Biogen ADME set (Fang et al. 2023).

The conditions of this data set: for aqueous solubility: pH 6.8.

Structures are written as SMILES. In brackets after ≈: the same amount, converted by molar mass.

In the case of `c1nc(NC2CCN(C3CC3)CC2)c2sccc2n1`, the MDR1-MDCK efflux ratio was 1.24; the intrinsic clearance, human liver microsomes came out at 17.4 mL/min/kg; the intrinsic clearance, rat liver microsomes came out at 80.6 mL/min/kg; the aqueous solubility was determined as 56.2 µg/mL (≈ 205 µM).

With `CN1CCC(C(=O)N2CCC(c3cc(C(F)(F)F)c4c(n3)CCNC4=O)CC2)CC1`, the MDR1-MDCK efflux ratio stood at 5.17; the intrinsic clearance, human liver microsomes was at most 4.74 mL/min/kg; the intrinsic clearance, rat liver microsomes was 11 mL/min/kg; the aqueous solubility turned out to be 52.3 µg/mL (≈ 123 µM).

`O=C(Nc1cccc(Cl)c1F)c1cccc(N2CCCC2=O)c1`: the intrinsic clearance, human liver microsomes was determined as 82.8 mL/min/kg; the intrinsic clearance, rat liver microsomes is 894 mL/min/kg; the aqueous solubility turned out to be 3.4 µg/mL (≈ 10.2 µM).

Take `Clc1cccc(-c2nnc(Cn3cnc4ccccc43)o2)c1`: the MDR1-MDCK efflux ratio amounted to 0.866; the intrinsic clearance, human liver microsomes was 7.23 mL/min/kg; the intrinsic clearance, rat liver microsomes was 122 mL/min/kg; the aqueous solubility turned out to be 27.4 µg/mL (≈ 88.2 µM).

Regarding `N#Cc1ccc(COc2cccc(C3CCN(Cc4nc5ccc(C(=O)O)cc5n4C[C@@H]4CCO4)CC3)n2)c(F)c1`, the MDR1-MDCK efflux ratio turned out to be 35.5; the fraction unbound, human plasma amounted to 0.0253; the fraction unbound, rat plasma was determined as 0.0205.

As for `CCc1ccc(-c2nccn2CC(=O)Nc2ccc(C)cc2F)nc1`, the MDR1-MDCK efflux ratio worked out at 0.725; the intrinsic clearance, human liver microsomes is 32.6 mL/min/kg; the intrinsic clearance, rat liver microsomes is 625 mL/min/kg; the aqueous solubility amounted to 28.3 µg/mL (≈ 83.5 µM).

As to `Cc1ccc(NC(=O)C(C)(C)c2ccccc2)nc1`, the MDR1-MDCK efflux ratio is 0.556; the intrinsic clearance, human liver microsomes is 16.8 mL/min/kg; the intrinsic clearance, rat liver microsomes was determined as 626 mL/min/kg; the aqueous solubility is 30.6 µg/mL (≈ 120 µM).

Turning to `Cc1nc(-c2cccc(C(N)=O)c2)sc1-c1ccc(F)cc1`, the intrinsic clearance, human liver microsomes turned out to be 18.1 mL/min/kg and the intrinsic clearance, rat liver microsomes was 394 mL/min/kg.

For `CCc1nnc(Oc2cccnc2)c(C#N)c1CC`, the MDR1-MDCK efflux ratio is 0.781; the intrinsic clearance, human liver microsomes came out at 4.94 mL/min/kg; the intrinsic clearance, rat liver microsomes worked out at 21.6 mL/min/kg; the aqueous solubility came to 30.5 µg/mL (≈ 120 µM).

In the case of `Cc1cc(C(=O)Nc2ncccc2C)c2ccccc2n1`, the intrinsic clearance, human liver microsomes amounted to 13.7 mL/min/kg; the intrinsic clearance, rat liver microsomes worked out at 58.3 mL/min/kg; the aqueous solubility is 44 µg/mL (≈ 159 µM).

`Cc1ccnc(NC(=O)CN(C)C(=O)c2ccc(Cl)cc2)c1`: the MDR1-MDCK efflux ratio amounted to 1.12; the intrinsic clearance, human liver microsomes was determined as 16.5 mL/min/kg; the intrinsic clearance, rat liver microsomes turned out to be 156 mL/min/kg; the aqueous solubility is 63.3 µg/mL (≈ 199 µM).

For `CCN(C(C)=O)c1ccc(C)cc1C(=O)O`, the MDR1-MDCK efflux ratio is 0.864; the intrinsic clearance, human liver microsomes was at most 4.74 mL/min/kg; the intrinsic clearance, rat liver microsomes is at most 10.7 mL/min/kg; the aqueous solubility amounted to 34.9 µg/mL (≈ 158 µM).

Take `CCCn1cc(CN2CCC(c3nc(N(C)C)no3)CC2)cn1`: the MDR1-MDCK efflux ratio stood at 1.14; the intrinsic clearance, human liver microsomes is 21 mL/min/kg; the intrinsic clearance, rat liver microsomes is 146 mL/min/kg.

In the case of `Cc1oc2ccccc2c1CNc1nnc(-c2ccncc2)o1`, the MDR1-MDCK efflux ratio worked out at 1.02; the fraction unbound, human plasma was 0.0522; the fraction unbound, rat plasma came to 0.00672; the intrinsic clearance, human liver microsomes worked out at 33.4 mL/min/kg. The molecule also came in with an intrinsic clearance, rat liver microsomes of 141 mL/min/kg.

As to `Nc1nc2c3ccccc3oc2c2ccccc12`, the MDR1-MDCK efflux ratio was 0.236 and the aqueous solubility stood at 0.25 µg/mL (≈ 1.07 µM).

For the molecule `CN(C(=O)c1cncc(F)c1)c1cccc2ncccc12`, the MDR1-MDCK efflux ratio is 2.74; the intrinsic clearance, human liver microsomes came out at 22.2 mL/min/kg; the intrinsic clearance, rat liver microsomes amounted to 134 mL/min/kg; the aqueous solubility turned out to be 61.8 µg/mL (≈ 220 µM).

`N#Cc1cc(F)ccc1Cn1ccnc1-c1ccccn1` returned an intrinsic clearance, human liver microsomes of 20.5 mL/min/kg and an intrinsic clearance, rat liver microsomes of 415 mL/min/kg.

Molecule `Oc1ccc(-c2noc(-c3cccnc3)n2)cc1` displayed an intrinsic clearance, human liver microsomes of 25.1 mL/min/kg; an intrinsic clearance, rat liver microsomes of 79.3 mL/min/kg; an aqueous solubility of 5.03 µg/mL (≈ 21 µM).

Regarding `CC(=O)N1CCC2(C=Cc3cc(C)c(C)cc3O2)CC1`, the MDR1-MDCK efflux ratio was found to be 0.579; the intrinsic clearance, human liver microsomes amounted to 12.4 mL/min/kg; the intrinsic clearance, rat liver microsomes is 1020 mL/min/kg.

Regarding `COc1cc(CNC(=O)NC2CCCCC2)cc(OC)c1O`, the MDR1-MDCK efflux ratio was found to be 4.18; the intrinsic clearance, human liver microsomes is at most 4.74 mL/min/kg; the intrinsic clearance, rat liver microsomes is at most 10.7 mL/min/kg; the aqueous solubility was determined as 78 µg/mL (≈ 253 µM).

For `Cc1cc(C)c(S(=O)(=O)Nc2ccccc2)c(C)c1`, the intrinsic clearance, human liver microsomes is 137 mL/min/kg and the intrinsic clearance, rat liver microsomes came to 4160 mL/min/kg.

For the molecule `Nc1nc(N)c2c(Cl)c(Br)ccc2n1`, the MDR1-MDCK efflux ratio was found to be 0.574; the intrinsic clearance, human liver microsomes stood at 7.36 mL/min/kg; the intrinsic clearance, rat liver microsomes turned out to be 84.7 mL/min/kg; the aqueous solubility stood at 24.6 µg/mL (≈ 90 µM).

`Cc1cc(-c2nnc3ccc4ccccc4n23)n(C)n1`: the MDR1-MDCK efflux ratio is 1.26; the intrinsic clearance, human liver microsomes is at most 4.74 mL/min/kg; the intrinsic clearance, rat liver microsomes stood at 20.3 mL/min/kg; the aqueous solubility is 17.1 µg/mL (≈ 64.9 µM).

For `O=C1CCCN1CCc1nc(-c2ccc3[nH]c(=O)oc3c2)cs1`, the MDR1-MDCK efflux ratio turned out to be 19.1; the intrinsic clearance, human liver microsomes is at most 4.74 mL/min/kg; the intrinsic clearance, rat liver microsomes is 65.9 mL/min/kg; the aqueous solubility was 59 µg/mL (≈ 179 µM).

As for `Cn1nc(C2CCNCC2)c2cccnc21`, the MDR1-MDCK efflux ratio was determined as 6.86; the intrinsic clearance, human liver microsomes is at most 4.74 mL/min/kg; the intrinsic clearance, rat liver microsomes was 36.3 mL/min/kg; the aqueous solubility came to 53.4 µg/mL (≈ 247 µM).

As for `Cc1nccn1CCCN1C(=O)SC(C)(C)C1=O`, the MDR1-MDCK efflux ratio worked out at 2.51; the intrinsic clearance, human liver microsomes was at most 4.74 mL/min/kg; the intrinsic clearance, rat liver microsomes was 83 mL/min/kg; the aqueous solubility was 29.2 µg/mL (≈ 109 µM).

The molecule `c1ccc(-c2nn3c(-c4ccco4)nnc3c3ccccc23)cc1` showed an aqueous solubility of 0.17 µg/mL (≈ 0.544 µM).

Take `Cc1cc(C)cc(Oc2cc(C#N)ccn2)c1`: the MDR1-MDCK efflux ratio turned out to be 0.559; the intrinsic clearance, human liver microsomes is 48 mL/min/kg; the intrinsic clearance, rat liver microsomes worked out at 214 mL/min/kg; the aqueous solubility is 9.73 µg/mL (≈ 43.4 µM).

As for `NCc1ccc(Oc2ccccc2)nc1`, the intrinsic clearance, human liver microsomes worked out at 20.7 mL/min/kg; the intrinsic clearance, rat liver microsomes is 50.5 mL/min/kg; the aqueous solubility amounted to 22 µg/mL (≈ 110 µM).

Turning to `Cn1cc(CN2CCCC(c3ccnc(Nc4cnccn4)c3)C2)cn1` (configuration not stated), the MDR1-MDCK efflux ratio was 6.36; the intrinsic clearance, human liver microsomes amounted to 7.74 mL/min/kg; the intrinsic clearance, rat liver microsomes was found to be 179 mL/min/kg.

`N#Cc1cc(F)c(C(=O)Nc2ccnc(NC(=O)[C@H]3C[C@H]3F)c2)c(Cl)c1`: the MDR1-MDCK efflux ratio is 42.6; the intrinsic clearance, human liver microsomes was at most 4.74 mL/min/kg; the aqueous solubility is 67.5 µg/mL (≈ 179 µM).

In the case of `Cc1ccc(F)cc1C(=O)N1CCc2c(nc(-c3ccccn3)nc2N(C)C)C1`, the intrinsic clearance, human liver microsomes is 8.74 mL/min/kg; the intrinsic clearance, rat liver microsomes is 61.6 mL/min/kg; the aqueous solubility came to 25.7 µg/mL (≈ 65.8 µM).

In the case of `CN(Cc1ccccc1Br)C(=O)Nc1ccc(C(=O)N2CCCC2)cc1`, the MDR1-MDCK efflux ratio is 9.97; the intrinsic clearance, human liver microsomes worked out at 14.6 mL/min/kg; the intrinsic clearance, rat liver microsomes stood at 767 mL/min/kg; the aqueous solubility was determined as 69.4 µg/mL (≈ 167 µM).

In the case of `Cc1cc(Nc2nnc(C)s2)cc(C2CN(C(=O)Cc3csc(C)n3)CCO2)n1` (configuration not stated), the MDR1-MDCK efflux ratio worked out at 35.5; the intrinsic clearance, human liver microsomes is 18.7 mL/min/kg; the intrinsic clearance, rat liver microsomes turned out to be 103 mL/min/kg.

In the case of `CC(C)c1nnc(NCc2ccn(C)c2)o1`, the MDR1-MDCK efflux ratio was found to be 0.768; the intrinsic clearance, human liver microsomes is at most 4.74 mL/min/kg; the intrinsic clearance, rat liver microsomes stood at 63.1 mL/min/kg; the aqueous solubility came to 17.9 µg/mL (≈ 81.2 µM).

As for `O=C(CCCc1cc(Cl)sc1Cl)N1CCC(O)CC1`, the MDR1-MDCK efflux ratio amounted to 0.857; the intrinsic clearance, human liver microsomes is 52.4 mL/min/kg; the intrinsic clearance, rat liver microsomes amounted to 741 mL/min/kg; the aqueous solubility turned out to be 30.1 µg/mL (≈ 93.4 µM).

Consider `Cc1ncc(-c2ccccn2)c(CCNC(=O)C2CCCC2)n1`, for which the MDR1-MDCK efflux ratio is 7.73; the intrinsic clearance, human liver microsomes was found to be 7.32 mL/min/kg; the intrinsic clearance, rat liver microsomes came to 90.7 mL/min/kg.

For `Cc1cccc(NC2CCN(Cc3ccncc3)CC2)n1`, the MDR1-MDCK efflux ratio is 0.496; the intrinsic clearance, human liver microsomes came out at 18.6 mL/min/kg; the intrinsic clearance, rat liver microsomes came out at 238 mL/min/kg; the aqueous solubility was 37.6 µg/mL (≈ 133 µM).

The molecule `CONC(=O)c1c2c(nc3ccccc13)CCC2` yielded an intrinsic clearance, human liver microsomes of at most 4.74 mL/min/kg and an intrinsic clearance, rat liver microsomes of at most 10.7 mL/min/kg.

Turning to `CSc1ncccc1C(=O)Nc1ccc(N2CCCCC2=O)cc1`, the MDR1-MDCK efflux ratio amounted to 8.14; the intrinsic clearance, human liver microsomes is at most 4.74 mL/min/kg; the intrinsic clearance, rat liver microsomes worked out at 17.8 mL/min/kg; the aqueous solubility worked out at 8.97 µg/mL (≈ 26.3 µM).

On to `CS(=O)(=O)NC1CCCN(c2nc3ccccc3o2)C1` (configuration not stated), for which the MDR1-MDCK efflux ratio is 4.21; the intrinsic clearance, human liver microsomes is at most 4.74 mL/min/kg; the intrinsic clearance, rat liver microsomes came out at 42.3 mL/min/kg.

Take `CNC(=O)C1(Cc2ccc(-c3cccnc3)cc2)CCN(Cc2cccc(F)c2)C1` (configuration not stated): the MDR1-MDCK efflux ratio stood at 1.32; the fraction unbound, human plasma stood at 0.0676; the fraction unbound, rat plasma is 0.034; the intrinsic clearance, human liver microsomes amounted to 280 mL/min/kg. The same molecule came in with an intrinsic clearance, rat liver microsomes of 982 mL/min/kg.

Consider `CCCCNc1nc2c(cc1C#N)CCC2`, for which the intrinsic clearance, human liver microsomes stood at 226 mL/min/kg and the intrinsic clearance, rat liver microsomes was found to be 2310 mL/min/kg.

`CN1C(=O)c2ccc(C(=O)N3CCN(C4CCCCC4)CC3)cc2C1=O`: the intrinsic clearance, human liver microsomes amounted to 18.5 mL/min/kg and the intrinsic clearance, rat liver microsomes was found to be 137 mL/min/kg.

`CCN(C(=O)c1cccc(-n2cccn2)c1)c1ccc(C#N)c(Cl)c1` returned an intrinsic clearance, human liver microsomes of 79 mL/min/kg and an intrinsic clearance, rat liver microsomes of 2060 mL/min/kg.

Consider `NC1CCCC(C(=O)Nc2ccc3[nH]ncc3c2)C1` (configuration not stated), for which the MDR1-MDCK efflux ratio came out at 0.764; the fraction unbound, human plasma was 1; the intrinsic clearance, human liver microsomes is 12.7 mL/min/kg.

Consider `O=C(Nc1ccc2c(c1)OCCCO2)c1cnn(Cc2ccccc2)c1`, for which the MDR1-MDCK efflux ratio is 0.64; the intrinsic clearance, human liver microsomes stood at 6.05 mL/min/kg; the intrinsic clearance, rat liver microsomes came to 492 mL/min/kg; the aqueous solubility amounted to 16.5 µg/mL (≈ 47.2 µM).
